{"source": "patent US10829796B2", "about": "“Bacteria identification and antimicrobial susceptibility test” (priority 2015, dated 2020)", "system": "bacteria in clinical bovine mastitis milk samples", "assay": "Combined bacteria identification and antimicrobial susceptibility test (colour of wells, MIC) on clinical bovine mastitis milk samples", "assay_type": "cell-based", "method": "Clinical bovine mastitis milk samples were collected by a vet clinic in South Island, New Zealand. Samples were stored in the freezer for several months and shipped frozen to the testing facility. In this Example, the term “clinical” means that dairy cows had clinical symptoms of an udder infection e.g. cow behaved unusual, milk clots, swollen udder among other typical symptoms. Testing was executed in microwell plate comprising of 24 wells (3×8 wells).\nIn addition, 20 ul of clinical mastitis sample was added to each well with a laboratory pipette.\nAbbreviations • 1. 80 ul GC+10 ul Tell: 80 ul Giolitti Cantoni base broth+10 ul Tellurite solution (1%); • 2. 80 ul TSB/Esc/Fer Cit: 80 ul Tryptic soy broth containing 0.25% Esculin and 0.125% Ammonium Ferric Citrate; • 3. 80 ul TSB/Esc/Fer Cit+10 ul Genta: 80 ul Tryptic soy broth containing 0.25% Esculin and 0.125% Ammonium Ferric Citrate+10 ul of Gentamycin solution 10 mg/ml; • 4. 80 ul McC/PR25: 80 ul MacConkey broth (single strength) containing 0.0125% phenol red; and • 5. 80 ul TSB/PR25: 80 ul Tryptic soy broth containing 0.0125% phenol red. Bacteria Identification\nColumns A to C and rows 1 and 2 were used for bacteria identification. A1: coagulase positive Staph; A2: Staphylococci; B1: Strep group D; B2: Strep group D; C1: general enrichment media (gram+ and gram-bacteria); C2: coliform bacteria.\nColumn A3 to A8: serial dilution of benzyl penicillin as potassium. Column B3 to B8: serial dilution of ceftiofur as hydrochloride. Column C3 to C8: serial dilution of cloxacillin as sodium. Antibiotic concentrations are listed as free form ranging between 4 ug/ml to 0.05 ug/ml.\nMinimum inhibitory substance concentration (MIC) is here defined as the concentration if a colour change occurs between two wells (one well remains red with drug concentration 1, the other one yellow with drug concentration 2, whereas drug concentration 1 is larger than drug concentration 2) then the MIC is the value of drug concentration 1.\nTable 21 indicates the microwell plate configuration #1; Drugs: Benzylpenicillin as potassium; Cloxacillin as sodium; Ceftiofur as hydrochloride; Drug concentration in each well (A3 to C8) is based on 80 μl composition+10 μl drug solution+20 μl clinical mastitis milk sample and equivalent to listed drug concentration in μg/ml; 20 ul of clinical bovine mastitis milk sample was added to each well (A1 to C8).\nIn addition, each well received one drop of clinical sample from a transfer pipette which was on average about 35 mg. This was determined through weighing the well plate prior and after the addition of clinical mastitis samples. This weight was then divided by 24.\n• 1. 80 ul GC+10 ul Tell: 80 ul Giolitti Cantoni base broth+10 ul Tellurite solution (1%); • 2. 80 ul TSB/Esc/Fer Cit: 80 ul Tryptic soy broth containing 0.25% Esculin and 0.125% Ammonium Ferric Citrate; • 3. 80 ul TSB/Esc/Fer Cit+10 ul Genta: 80 ul Tryptic soy broth containing 0.25% Esculin and 0.125% Ammonium Ferric Citrate+10 ul of Gentamycin solution 10 mg/ml; • 4. 80 ul McC/PR25: 80 ul MacConkey broth (single strength) containing 0.0125% phenol red; and • 5. 80 ul TSB/PR25: 80 ul Tryptic soy broth containing 0.0125% phenol red.\nColumns A to C and rows 1 and 2 were used for bacteria identification. A1: coagulase positive Staph; A2: Staphylococci; B1: Strep Group D; B2: -; C1: general enrichment media (gram+ and gram-); C2: coliform bacteria.\nColumn A3 to A8: serial dilution of benzyl penicillin as potassium. Drug concentrations given as free form ranging between 4 ug/ml to 0.05 ug/ml. Column B3 to B8: serial dilution of ceftiofur as hydrochloride. Drug concentrations given as free form ranging between 4 ug/ml to 0.05 ug/ml. Column C3 to C8: serial dilution of cloxacillin as sodium. Drug concentrations given as free form ranging between 4 ug/ml to 0.05 ug/ml."}
{"compound": "CO/N=C(\\C(=O)N[C@@H]1C(=O)N2C(C(=O)O)=C(CSC(=O)c3ccco3)CS[C@H]12)c1csc(N)n1", "note": "[ceftiofur]", "values": [{"measurement": "Colour of media in each well", "setting": "ID 5 to 8, T = 0 h (prior incubation, reference), plate configuration #2, drug 2 μg/ml", "value": "red"}, {"measurement": "Colour of media in each well", "setting": "ID 5 to 8, T = 0 h (prior incubation, reference), plate configuration #2, drug 4 μg/ml", "value": "red"}, {"measurement": "Colour of media in each well", "setting": "ID 6, T = 23h, 37° C., plate configuration #2, drug 0.05 μg/ml (Table 31)", "value": "yellow"}, {"measurement": "Colour of media in each well", "setting": "ID 6, T = 23h, 37° C., plate configuration #2, drug 0.1 μg/ml (Table 31)", "value": "yellow"}, {"measurement": "Colour of media in each well", "setting": "ID 6, T = 23h, 37° C., plate configuration #2, drug 0.5 μg/ml (Table 31)", "value": "yellow"}, {"measurement": "Colour of media in each well", "setting": "ID 6, T = 23h, 37° C., plate configuration #2, drug 1 μg/ml (Table 31)", "value": "yellow"}, {"measurement": "Colour of media in each well", "setting": "ID 6, T = 23h, 37° C., plate configuration #2, drug 2 μg/ml (Table 31)", "value": "red"}, {"measurement": "Colour of media in each well", "setting": "ID 6, T = 23h, 37° C., plate configuration #2, drug 4 μg/ml (Table 31)", "value": "red"}, {"measurement": "Colour of media in each well", "setting": "ID 6, T~7 h, 37° C., plate configuration #2, Table 35, drug 0.05 μg/ml", "value": "yellow"}, {"measurement": "Colour of media in each well", "setting": "ID 6, T~7 h, 37° C., plate configuration #2, Table 35, drug 0.1 μg/ml", "value": "yellow"}, {"measurement": "Colour of media in each well", "setting": "ID 6, T~7 h, 37° C., plate configuration #2, Table 35, drug 0.5 μg/ml", "value": "yellow"}, {"measurement": "Colour of media in each well", "setting": "ID 6, T~7 h, 37° C., plate configuration #2, Table 35, drug 1 μg/ml", "value": "red"}, {"measurement": "Colour of media in each well", "setting": "ID 6, T~7 h, 37° C., plate configuration #2, Table 35, drug 2 μg/ml", "value": "red"}, {"measurement": "Colour of media in each well", "setting": "ID 6, T~7 h, 37° C., plate configuration #2, Table 35, drug 4 μg/ml", "value": "red"}, {"measurement": "Colour of media in each well", "setting": "ID 6, T~11 h, 37° C., plate configuration #2, Table 35, drug 0.05 μg/ml", "value": "yellow"}, {"measurement": "Colour of media in each well", "setting": "ID 6, T~11 h, 37° C., plate configuration #2, Table 35, drug 0.1 μg/ml", "value": "yellow"}, {"measurement": "Colour of media in each well", "setting": "ID 6, T~11 h, 37° C., plate configuration #2, Table 35, drug 0.5 μg/ml", "value": "yellow"}, {"measurement": "Colour of media in each well", "setting": "ID 6, T~11 h, 37° C., plate configuration #2, Table 35, drug 1 μg/ml", "value": "red"}, {"measurement": "Colour of media in each well", "setting": "ID 6, T~11 h, 37° C., plate configuration #2, Table 35, drug 2 μg/ml", "value": "red"}, {"measurement": "Colour of media in each well", "setting": "ID 6, T~11 h, 37° C., plate configuration #2, Table 35, drug 4 μg/ml", "value": "red"}, {"measurement": "Colour of media in each well", "setting": "ID 6, T~23 h, 37° C., plate configuration #2, Table 35, drug 0.05 μg/ml", "value": "yellow"}, {"measurement": "Colour of media in each well", "setting": "ID 6, T~23 h, 37° C., plate configuration #2, Table 35, drug 0.1 μg/ml", "value": "yellow"}, {"measurement": "Colour of media in each well", "setting": "ID 6, T~23 h, 37° C., plate configuration #2, Table 35, drug 0.5 μg/ml", "value": "yellow"}, {"measurement": "Colour of media in each well", "setting": "ID 6, T~23 h, 37° C., plate configuration #2, Table 35, drug 1 μg/ml", "value": "yellow"}, {"measurement": "Colour of media in each well", "setting": "ID 6, T~23 h, 37° C., plate configuration #2, Table 35, drug 2 μg/ml", "value": "red"}, {"measurement": "Colour of media in each well", "setting": "ID 6, T~23 h, 37° C., plate configuration #2, Table 35, drug 4 μg/ml", "value": "red"}, {"measurement": "Colour of media in each well", "setting": "ID 7, T = 23h, 37° C., plate configuration #2, drug 0.05 μg/ml", "value": "yellow"}, {"measurement": "Colour of media in each well", "setting": "ID 7, T = 23h, 37° C., plate configuration #2, drug 0.1 μg/ml", "value": "yellow"}, {"measurement": "Colour of media in each well", "setting": "ID 7, T = 23h, 37° C., plate configuration #2, drug 0.5 μg/ml", "value": "yellow"}, {"measurement": "Colour of media in each well", "setting": "ID 7, T = 23h, 37° C., plate configuration #2, drug 1 μg/ml", "value": "red"}, {"measurement": "Colour of media in each well", "setting": "ID 7, T = 23h, 37° C., plate configuration #2, drug 2 μg/ml", "value": "red"}, {"measurement": "Colour of media in each well", "setting": "ID 7, T = 23h, 37° C., plate configuration #2, drug 4 μg/ml", "value": "red"}, {"measurement": "Colour of media in each well", "setting": "ID 8, T = 23 h, 37° C., plate configuration #2, drug 0.05 μg/ml", "value": "yellow"}, {"measurement": "Colour of media in each well", "setting": "ID 8, T = 23 h, 37° C., plate configuration #2, drug 0.1 μg/ml", "value": "yellow"}, {"measurement": "Colour of media in each well", "setting": "ID 8, T = 23 h, 37° C., plate configuration #2, drug 0.5 μg/ml", "value": "red"}, {"measurement": "Colour of media in each well", "setting": "ID 8, T = 23 h, 37° C., plate configuration #2, drug 1 μg/ml", "value": "red"}, {"measurement": "Colour of media in each well", "setting": "ID 8, T = 23 h, 37° C., plate configuration #2, drug 2 μg/ml", "value": "red"}, {"measurement": "Colour of media in each well", "setting": "ID 8, T = 23 h, 37° C., plate configuration #2, drug 4 μg/ml", "value": "red"}, {"measurement": "Colour of media in each well", "setting": "Table 24, sample ID 2, 22 hours at 37° C., plate configuration #1, row 3 of serial dilution 4 ug/ml to 0.05 ug/ml", "value": "red"}, {"measurement": "Colour of media in each well", "setting": "Table 24, sample ID 2, 22 hours at 37° C., plate configuration #1, row 4 of serial dilution 4 ug/ml to 0.05 ug/ml", "value": "red"}, {"measurement": "Colour of media in each well", "setting": "Table 24, sample ID 2, 22 hours at 37° C., plate configuration #1, row 5 of serial dilution 4 ug/ml to 0.05 ug/ml", "value": "red"}, {"measurement": "Colour of media in each well", "setting": "Table 24, sample ID 2, 22 hours at 37° C., plate configuration #1, row 6 of serial dilution 4 ug/ml to 0.05 ug/ml", "value": "orange"}, {"measurement": "Colour of media in each well", "setting": "Table 24, sample ID 2, 22 hours at 37° C., plate configuration #1, row 7 of serial dilution 4 ug/ml to 0.05 ug/ml", "value": "yellow"}, {"measurement": "Colour of media in each well", "setting": "Table 24, sample ID 2, 22 hours at 37° C., plate configuration #1, row 8 of serial dilution 4 ug/ml to 0.05 ug/ml", "value": "yellow"}, {"measurement": "MIC", "setting": "clinical sample ID 1 (streptococci group D), 37° C. for 22 hours, plate configuration #1", "value": 0.5, "unit": "µg/mL"}, {"measurement": "MIC", "setting": "clinical sample ID 2 (streptococci group D, also coagulase positive Staph), 37° C. for 22 hours, plate configuration #1", "value": 1, "unit": "µg/mL"}, {"measurement": "MIC", "setting": "clinical sample ID 3 (coliform bacteria), 37° C. for 22 hours, plate configuration #1", "value": 1, "unit": "µg/mL"}, {"measurement": "MIC", "setting": "clinical sample ID 4 (coagulase positive Staph), 37° C. for 22 hours, plate configuration #1", "value": 1, "unit": "µg/mL"}, {"measurement": "MIC", "setting": "clinical sample ID 5 (streptococci group D), 37° C. for 23 hours, plate configuration #2", "value": 0.5, "unit": "µg/mL"}, {"measurement": "MIC", "setting": "clinical sample ID 6 (coliform bacteria), 37° C. for 23 hours, plate configuration #2", "value": 2, "unit": "µg/mL"}, {"measurement": "MIC", "setting": "clinical sample ID 7 (coagulase positive Staph), 37° C. for 23 hours, plate configuration #2", "value": 1, "unit": "µg/mL"}, {"measurement": "MIC", "setting": "clinical sample ID 8 (coagulase negative Staph and Streptococci group D), 37° C. for 23 hours, plate configuration #2", "value": 0.5, "unit": "µg/mL"}]}
